Assay results: patent US11767310B2, “Nicotinamide RIPK1 inhibitors” (AbbVie Inc., priority 2021, dated 2023)
Like-named read-outs stand apart in the source and are kept apart here.

Tests used:
Assay in all cases: Kinase binding screen
Settings in all cases: read-out: Percent Control at 100 nM Compound Concentration
PRKD3 = PRKD3 (Homo sapiens (Human), UniProt O94806)
AURKC = AURKC (Homo sapiens (Human), UniProt Q9UQB9)
LIMK1 = LIMK1 (Homo sapiens (Human), UniProt P53667)
MAST1 = MAST1 (Homo sapiens (Human), UniProt Q9Y2H9)
MARK4 = MARK4 (Homo sapiens (Human), UniProt Q96L34)
ERBB2 = ERBB2 (Homo sapiens (Human), UniProt P04626)
[1] = target: JAK1(JH2domain-pseudokinase) (Homo sapiens (Human), UniProt P23458)
RET = RET (Homo sapiens (Human), UniProt P07949)
PRKR = PRKR (Homo sapiens (Human), UniProt P19525)
PRKCH = PRKCH (Homo sapiens (Human), UniProt P24723)
SIK2 = SIK2 (Homo sapiens (Human), UniProt Q9H0K1)
DDR1 = DDR1 (Homo sapiens (Human), UniProt Q08345)
LRRK2 = LRRK2 (Homo sapiens (Human), UniProt Q5S007)
NEK9 = NEK9 (Homo sapiens (Human), UniProt Q8TD19)
BRSK1 = BRSK1 (Homo sapiens (Human), UniProt Q8TDC3)
BTK = BTK (Homo sapiens (Human), UniProt Q06187)
[2] = target: TYK2(JH1domain-catalytic) (Homo sapiens (Human), UniProt P29597)
MY03A = MY03A (Homo sapiens (Human), UniProt Q8NEV4)
NEK5 = NEK5 (Homo sapiens (Human), UniProt Q6P3R8)
MAP3K3 = MAP3K3 (Homo sapiens (Human), UniProt Q99759)
FAK = FAK (Homo sapiens (Human), UniProt Q05397)
PIK3CG = PIK3CG (Homo sapiens (Human), UniProt P48736)
[3] = target: JAK1(JH1domain-catalytic) (Homo sapiens (Human), UniProt P23458)
LIMK2 = LIMK2 (Homo sapiens (Human), UniProt P53671)
TIE1 = TIE1 (Homo sapiens (Human), UniProt P35590)
IRAK1 = IRAK1 (Homo sapiens (Human), UniProt P51617)
MUSK = MUSK (Homo sapiens (Human), UniProt O15146)
NEK1 = NEK1 (Homo sapiens (Human), UniProt Q96PY6)
MRCKA = MRCKA (Homo sapiens (Human), UniProt Q5VT25)

Sequence of RET (P07949 29-1114): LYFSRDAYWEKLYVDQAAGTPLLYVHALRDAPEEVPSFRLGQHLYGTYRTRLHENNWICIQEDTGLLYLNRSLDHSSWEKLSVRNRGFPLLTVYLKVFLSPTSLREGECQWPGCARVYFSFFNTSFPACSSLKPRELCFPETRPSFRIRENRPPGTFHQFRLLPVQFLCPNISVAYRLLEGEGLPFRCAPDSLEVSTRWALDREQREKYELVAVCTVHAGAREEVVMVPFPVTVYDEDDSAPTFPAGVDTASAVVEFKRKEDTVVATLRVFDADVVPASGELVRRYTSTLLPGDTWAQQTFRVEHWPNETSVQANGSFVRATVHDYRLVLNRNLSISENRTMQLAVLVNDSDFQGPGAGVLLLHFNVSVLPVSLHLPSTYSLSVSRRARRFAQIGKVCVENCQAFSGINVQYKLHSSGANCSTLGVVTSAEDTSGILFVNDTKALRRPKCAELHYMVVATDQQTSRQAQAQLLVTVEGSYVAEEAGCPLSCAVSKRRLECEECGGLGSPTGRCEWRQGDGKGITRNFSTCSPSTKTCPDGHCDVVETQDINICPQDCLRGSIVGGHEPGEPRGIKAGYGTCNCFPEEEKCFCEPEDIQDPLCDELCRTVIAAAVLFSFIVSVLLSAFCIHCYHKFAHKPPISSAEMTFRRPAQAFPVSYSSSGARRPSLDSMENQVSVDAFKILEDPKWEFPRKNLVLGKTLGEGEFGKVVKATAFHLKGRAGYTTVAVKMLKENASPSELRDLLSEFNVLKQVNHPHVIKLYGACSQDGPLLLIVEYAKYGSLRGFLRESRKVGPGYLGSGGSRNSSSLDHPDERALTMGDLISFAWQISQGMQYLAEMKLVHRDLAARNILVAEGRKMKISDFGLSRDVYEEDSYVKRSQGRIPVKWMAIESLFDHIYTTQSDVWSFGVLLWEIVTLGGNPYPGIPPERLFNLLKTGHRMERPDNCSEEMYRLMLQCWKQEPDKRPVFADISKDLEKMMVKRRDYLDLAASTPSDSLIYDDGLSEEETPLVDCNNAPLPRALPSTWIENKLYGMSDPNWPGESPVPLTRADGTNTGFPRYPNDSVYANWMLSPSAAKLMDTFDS
Sequence of MAP3K3 (Q99759 whole entry): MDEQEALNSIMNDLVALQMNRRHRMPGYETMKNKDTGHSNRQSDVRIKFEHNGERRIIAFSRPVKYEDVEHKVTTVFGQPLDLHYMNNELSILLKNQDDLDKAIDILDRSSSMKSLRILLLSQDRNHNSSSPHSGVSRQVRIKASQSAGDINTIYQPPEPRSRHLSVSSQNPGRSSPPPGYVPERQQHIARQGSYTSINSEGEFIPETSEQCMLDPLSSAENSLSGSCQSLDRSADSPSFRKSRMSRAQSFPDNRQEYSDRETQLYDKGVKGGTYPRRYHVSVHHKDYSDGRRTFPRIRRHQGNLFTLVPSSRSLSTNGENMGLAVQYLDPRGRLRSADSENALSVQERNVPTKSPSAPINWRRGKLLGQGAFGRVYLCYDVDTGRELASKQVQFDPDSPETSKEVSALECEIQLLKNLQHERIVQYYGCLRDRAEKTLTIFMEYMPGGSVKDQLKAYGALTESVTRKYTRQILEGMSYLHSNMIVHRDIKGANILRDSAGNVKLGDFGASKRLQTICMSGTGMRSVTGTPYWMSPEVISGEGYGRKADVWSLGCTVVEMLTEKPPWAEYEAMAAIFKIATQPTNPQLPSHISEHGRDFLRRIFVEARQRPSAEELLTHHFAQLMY
Sequence of JAK1(JH2domain-pseudokinase) (P23458 583-855): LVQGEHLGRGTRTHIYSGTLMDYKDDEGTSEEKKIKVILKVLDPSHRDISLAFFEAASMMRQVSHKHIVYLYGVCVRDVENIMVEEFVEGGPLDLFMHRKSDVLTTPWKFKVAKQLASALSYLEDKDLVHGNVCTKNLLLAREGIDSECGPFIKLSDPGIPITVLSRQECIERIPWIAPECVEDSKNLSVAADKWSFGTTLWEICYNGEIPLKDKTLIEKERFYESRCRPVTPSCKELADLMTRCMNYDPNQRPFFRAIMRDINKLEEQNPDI
Sequence of BRSK1 (Q8TDC3 whole entry): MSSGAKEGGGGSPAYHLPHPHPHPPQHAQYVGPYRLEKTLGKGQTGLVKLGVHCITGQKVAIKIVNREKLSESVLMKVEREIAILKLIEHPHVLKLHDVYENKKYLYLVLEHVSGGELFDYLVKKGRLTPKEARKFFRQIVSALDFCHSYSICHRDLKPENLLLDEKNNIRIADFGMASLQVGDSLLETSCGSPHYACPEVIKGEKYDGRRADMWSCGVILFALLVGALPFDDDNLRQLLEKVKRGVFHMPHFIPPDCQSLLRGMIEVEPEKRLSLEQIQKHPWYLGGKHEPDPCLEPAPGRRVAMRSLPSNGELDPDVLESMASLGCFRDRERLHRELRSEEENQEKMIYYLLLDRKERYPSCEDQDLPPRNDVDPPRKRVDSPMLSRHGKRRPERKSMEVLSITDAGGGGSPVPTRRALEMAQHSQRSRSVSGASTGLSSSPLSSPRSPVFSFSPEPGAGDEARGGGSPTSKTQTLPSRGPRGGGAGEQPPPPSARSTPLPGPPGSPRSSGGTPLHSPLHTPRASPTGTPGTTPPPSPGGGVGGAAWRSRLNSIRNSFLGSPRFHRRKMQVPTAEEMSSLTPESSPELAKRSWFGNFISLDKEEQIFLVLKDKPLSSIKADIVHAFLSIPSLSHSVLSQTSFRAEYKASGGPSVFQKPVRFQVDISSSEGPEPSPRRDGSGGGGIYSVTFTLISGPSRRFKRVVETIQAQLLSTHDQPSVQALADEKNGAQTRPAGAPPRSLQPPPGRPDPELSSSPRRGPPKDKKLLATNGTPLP
Sequence of SIK2 (Q9H0K1 whole entry): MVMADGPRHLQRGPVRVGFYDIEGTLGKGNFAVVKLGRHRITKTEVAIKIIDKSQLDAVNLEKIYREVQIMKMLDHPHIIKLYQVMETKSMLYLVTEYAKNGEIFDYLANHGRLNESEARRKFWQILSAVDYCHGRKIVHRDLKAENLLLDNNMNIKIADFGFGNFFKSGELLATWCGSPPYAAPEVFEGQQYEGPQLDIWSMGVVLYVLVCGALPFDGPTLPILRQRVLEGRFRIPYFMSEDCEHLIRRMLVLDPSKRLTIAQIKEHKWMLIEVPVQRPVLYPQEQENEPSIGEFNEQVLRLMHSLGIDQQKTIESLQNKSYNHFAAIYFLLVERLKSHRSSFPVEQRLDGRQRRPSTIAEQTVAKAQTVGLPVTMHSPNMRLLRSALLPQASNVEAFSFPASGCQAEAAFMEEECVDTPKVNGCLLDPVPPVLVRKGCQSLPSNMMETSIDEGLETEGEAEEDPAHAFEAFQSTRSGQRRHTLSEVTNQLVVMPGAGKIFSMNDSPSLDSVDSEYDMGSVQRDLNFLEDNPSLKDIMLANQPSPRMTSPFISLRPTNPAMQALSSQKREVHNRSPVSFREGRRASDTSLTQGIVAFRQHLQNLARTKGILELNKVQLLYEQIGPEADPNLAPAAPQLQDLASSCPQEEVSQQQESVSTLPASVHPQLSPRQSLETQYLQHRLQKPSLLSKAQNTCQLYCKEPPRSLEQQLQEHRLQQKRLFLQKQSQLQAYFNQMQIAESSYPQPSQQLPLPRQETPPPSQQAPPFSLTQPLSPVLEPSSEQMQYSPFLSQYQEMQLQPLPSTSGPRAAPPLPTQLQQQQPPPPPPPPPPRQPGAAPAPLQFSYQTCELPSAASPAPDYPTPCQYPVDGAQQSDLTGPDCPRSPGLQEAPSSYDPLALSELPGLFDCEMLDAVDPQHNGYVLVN
Sequence of ERBB2 (P04626 23-1255): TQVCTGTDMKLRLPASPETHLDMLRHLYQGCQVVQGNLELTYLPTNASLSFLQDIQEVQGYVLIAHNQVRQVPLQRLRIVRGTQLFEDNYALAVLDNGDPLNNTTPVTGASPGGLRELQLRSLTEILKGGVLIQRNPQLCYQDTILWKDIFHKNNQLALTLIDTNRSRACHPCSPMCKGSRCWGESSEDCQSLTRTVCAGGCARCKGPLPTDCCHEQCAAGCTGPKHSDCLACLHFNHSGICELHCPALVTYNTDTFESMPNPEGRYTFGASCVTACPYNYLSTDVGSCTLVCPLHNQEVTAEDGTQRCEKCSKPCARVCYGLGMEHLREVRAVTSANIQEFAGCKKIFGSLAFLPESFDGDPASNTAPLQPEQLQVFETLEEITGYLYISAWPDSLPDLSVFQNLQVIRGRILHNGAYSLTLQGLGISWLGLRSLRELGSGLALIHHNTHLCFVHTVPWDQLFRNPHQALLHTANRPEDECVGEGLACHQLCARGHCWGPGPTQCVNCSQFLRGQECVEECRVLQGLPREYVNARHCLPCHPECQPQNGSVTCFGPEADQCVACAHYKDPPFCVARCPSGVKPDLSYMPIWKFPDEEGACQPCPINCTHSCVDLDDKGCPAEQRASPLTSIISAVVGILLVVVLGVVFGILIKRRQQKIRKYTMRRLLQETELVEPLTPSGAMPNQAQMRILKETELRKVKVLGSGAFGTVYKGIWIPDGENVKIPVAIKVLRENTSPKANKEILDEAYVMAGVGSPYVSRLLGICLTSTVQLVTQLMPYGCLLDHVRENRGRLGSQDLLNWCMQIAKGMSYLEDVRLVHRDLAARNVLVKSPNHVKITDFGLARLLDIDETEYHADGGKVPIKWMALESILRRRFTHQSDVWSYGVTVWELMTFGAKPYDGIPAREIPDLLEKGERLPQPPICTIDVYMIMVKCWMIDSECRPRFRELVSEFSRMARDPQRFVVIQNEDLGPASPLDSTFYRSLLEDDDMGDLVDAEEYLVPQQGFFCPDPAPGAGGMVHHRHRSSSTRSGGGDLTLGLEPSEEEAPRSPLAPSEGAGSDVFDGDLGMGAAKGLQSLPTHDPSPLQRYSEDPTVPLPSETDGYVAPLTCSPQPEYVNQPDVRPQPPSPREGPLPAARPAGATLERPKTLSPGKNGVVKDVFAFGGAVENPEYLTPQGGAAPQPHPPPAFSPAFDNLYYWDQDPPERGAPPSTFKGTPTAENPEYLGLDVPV

Structure (SMILES): CN(C[C@@H](O)Cc1ccccc1)C(=O)c1cncc(C#Cc2cnn(C(F)F)c2)c1 [Example 2, (S)-5-((1-(difluoromethyl)-1H-pyrazol-4-yl)ethynyl)-N-(2-hydroxy-3-phenylpropyl)-N-methylnicotinamide]
- remaining activity at 0.1 µM (PRKD3; PRKD3): 100%
- remaining activity at 0.1 µM (AURKC; AURKC): 100%
- remaining activity at 0.1 µM (LIMK1; LIMK1): 100%
- remaining activity at 0.1 µM (MAST1; MAST1): 100%
- remaining activity at 0.1 µM (MARK4; MARK4): 91%
- remaining activity at 0.1 µM (ERBB2; ERBB2): 70%
- remaining activity at 0.1 µM ([1]; JAK1(JH2domain-pseudokinase)): 93%
- remaining activity at 0.1 µM (RET; RET): 100%
- remaining activity at 0.1 µM (PRKR; PRKR): 100%
- remaining activity at 0.1 µM (PRKCH; PRKCH): 100%
- remaining activity at 0.1 µM (SIK2; SIK2): 89%
- remaining activity at 0.1 µM (DDR1; DDR1): 100%
- remaining activity at 0.1 µM (LRRK2; LRRK2): 100%
- remaining activity at 0.1 µM (NEK9; NEK9): 100%
- remaining activity at 0.1 µM (BRSK1; BRSK1): 99%
- remaining activity at 0.1 µM (BTK; BTK): 100%
- remaining activity at 0.1 µM ([2]; TYK2(JH1domain-catalytic)): 100%
- remaining activity at 0.1 µM (MY03A; MY03A): 99%
- remaining activity at 0.1 µM (NEK5; NEK5): 100%
- remaining activity at 0.1 µM (MAP3K3; MAP3K3): 96%
- remaining activity at 0.1 µM (FAK; FAK): 100%
- remaining activity at 0.1 µM (PIK3CG; PIK3CG): 100%
- remaining activity at 0.1 µM ([3]; JAK1(JH1domain-catalytic)): 100%
- remaining activity at 0.1 µM (LIMK2; LIMK2): 95%
- remaining activity at 0.1 µM (TIE1; TIE1): 100%
- remaining activity at 0.1 µM (IRAK1; IRAK1): 91%
- remaining activity at 0.1 µM (MUSK; MUSK): 100%
- remaining activity at 0.1 µM (NEK1; NEK1): 100%
- remaining activity at 0.1 µM (MRCKA; MRCKA): 100%

Structure (SMILES): CN(C[C@H](Cc1ccccc1)OP(=O)(O)O)C(=O)c1cncc(C#Cc2cnn(C(F)F)c2)c1 [Example 19, (S)-1-(5-((1-(difluoromethyl)-1H-pyrazol-4-yl)ethynyl)-N-methylnicotinamido)-3-phenylpropan-2-yl dihydrogen phosphate]
- remaining activity at 0.1 µM (PRKD3): 100%
- remaining activity at 0.1 µM (AURKC): 100%
- remaining activity at 0.1 µM (LIMK1): 100%
- remaining activity at 0.1 µM (MAST1): 97%
- remaining activity at 0.1 µM (MARK4): 94%
- remaining activity at 0.1 µM (ERBB2): 65%
- remaining activity at 0.1 µM [1]: 86%
- remaining activity at 0.1 µM (RET): 100%
- remaining activity at 0.1 µM (PRKR): 97%
- remaining activity at 0.1 µM (PRKCH): 91%
- remaining activity at 0.1 µM (SIK2): 96%
- remaining activity at 0.1 µM (DDR1): 100%
- remaining activity at 0.1 µM (LRRK2): 81%
- remaining activity at 0.1 µM (NEK9): 100%
- remaining activity at 0.1 µM (BRSK1): 99%
- remaining activity at 0.1 µM (BTK): 96%
- remaining activity at 0.1 µM [2]: 100%
- remaining activity at 0.1 µM (MY03A): 93%
- remaining activity at 0.1 µM (NEK5): 94%
- remaining activity at 0.1 µM (MAP3K3): 92%
- remaining activity at 0.1 µM (FAK): 100%
- remaining activity at 0.1 µM (PIK3CG): 100%
- remaining activity at 0.1 µM [3]: 100%
- remaining activity at 0.1 µM (LIMK2): 93%
- remaining activity at 0.1 µM (TIE1): 100%
- remaining activity at 0.1 µM (IRAK1): 86%
- remaining activity at 0.1 µM (MUSK): 100%
- remaining activity at 0.1 µM (NEK1): 100%
- remaining activity at 0.1 µM (MRCKA): 100%
